Assay results reported in patent publication US12492173B2, “Herbicidal substituted N-tetrazolyl aryl carboxamides” (Bayer Aktiengesellschaft, priority 2019, dated 2025).

Tests used:
Assay type in all cases: in vivo
[1] = tested on: Amaranthus retroflexus; assay: Pre-emergence herbicidal action, AMARE; conditions: dosage 320 g/ha
Summary of the method: (§1)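 Pre-emergence, sandy loam soil; WP/EC formulation applied to covering soil surface, 600–800 l/ha water + 0.2% wetter; greenhouse, 3 wk; visual % damage vs untreated (0–100%).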

[2] = tested on: Matricaria inodora; assay: Pre-emergence herbicidal action, MATIN; conditions: dosage 320 g/ha
Summary of the method: as §1

[3] = tested on: Veronica persica; assay: Pre-emergence herbicidal action, VERPE; conditions: dosage 320 g/ha
Summary of the method: as §1

[4] = tested on: Abutilon theophrasti; assay: Post-emergence herbicidal action, ABUTH; set-up: key: % herbicidal action vs untreated; 100 = plants died, 0 = like control; conditions: for herbicidal action ABUTH: Dosage 80 g/ha
Summary of the method: (§2)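 Values are visual estimates of herbicidal action, from 0% (as untreated) to 100% (dead), made about 3 weeks after plants at one-leaf stage in sandy loam were sprayed with the formulated compound.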

[5] = tested on: Amaranthus retroflexus; assay: Post-emergence herbicidal action, AMARE; set-up: key: % herbicidal action vs untreated; 100 = plants died, 0 = like control; conditions: for herbicidal action AMARE: Dosage 80 g/ha; for Herbicidal action against AMARE: post-emergence, dosage 80 g/ha
Summary of the method: as §2

[6] = tested on: Cyperus esculentus; assay: Post-emergence herbicidal action, CYPES; set-up: key: % herbicidal action vs untreated; 100 = plants died, 0 = like control; conditions: Dosage 80 g/ha
Procedure: (§3) [table] 2. Post-Emergence Herbicidal Action Against Harmful Plants Seeds of monocotyledonous and dicotyledonous weed and crop plants are laid out in sandy loam soil in wood-fiber pots, covered with soil and cultivated in a greenhouse under good growth conditions. 2 to 3 weeks after sowing, the test plants are treated at the one-leaf stage. The compounds of the invention, formulated in the form of wettable powders (WP) or as emulsion concentrates (EC), are then sprayed onto the green parts of the plants in the form of an aqueous suspension or emulsion at a water application rate equating to 600 to 800 l/ha, with addition of 0.2% wetting agent. After the test plants have been left to stand in the greenhouse under optimal growth conditions for about 3 weeks, the action of the preparations is assessed visually in comparison to untreated controls (herbicidal action in percent (%): 100% activity=the plants have died, 0% activity=like control plants). […] The tables below illustrate, in an exemplary manner, the post-emergence herbicidal action of the compounds according to the invention, the herbicidal activity being stated in percent. In the experiments that follow, herbicidal action of numerous inventive compounds and the known compounds that are structurally closest from D1 (WO 2012/028579 A1) and D2 (WO 2018/202535 A1) were compared under the above-specified conditions by the pre-emergence and post-emergence method. The example numbers given in the tables relate to the compounds disclosed in the respective documents. In addition to the compounds disclosed in D1 and D2, the following compounds V-1 to V-14 that are encompassed by D1 or D2 but are not compounds specified therein were used in the comparative experiments: • V-1: 2-(methylsulfanyl)-3-(methylsulfinyl)-N-(1-methyl-1H-tetrazol-5-yl)-4-(trifluoromethyl)benzamide • V-2: 2-(methylsulfanyl)-3-(methylsulfonyl)-N-(1-methyl-1H-tetrazol-5-yl)-4-(trifluoromethyl)benzamide • V-3: 2,3-bis(ethylsulfanyl)-N-(1-methyl-1H-tetrazol-5-yl)-4-(trifluoromethyl)benzamide • V-4: 2-chloro-3-(ethylsulfanyl)-N-(1-methyl-1H-tetrazol-5-yl)-4-(trifluoromethyl)benzamide • V-5: 2-chloro-4-iodo-3-(methylsulfanyl)-N-(1-methyl-1H-tetrazol-5-yl)benzamide • V-6: 2-chloro-4-iodo-3-(methylsulfinyl)-N-(1-methyl-1H-tetrazol-5-yl)benzamide • V-7: 2-chloro-4-iodo-3-(methylsulfonyl)-N-(1-methyl-1H-tetrazol-5-yl)benzamide • V-8: 2-bromo-3-(methylsulfanyl)-N-(1-methyl-1H-tetrazol-5-yl)-4-(trifluoromethyl)benzamide • V-9: 2-bromo-3-(methylsulfinyl)-N-(1-methyl-1H-tetrazol-5-yl)-4-(trifluoromethyl)benzamide • V-10: 2-bromo-3-(methylsulfonyl)-N-(1-methyl-1H-tetrazol-5-yl)-4-(trifluoromethyl)benzamide • V-11: 2-bromo-3-(ethylsulfanyl)-N-(1-methyl-1H-tetrazol-5-yl)-4-(trifluoromethyl)benzamide • V-12: 2-bromo-3-(ethylsulfinyl)-N-(1-methyl-1H-tetrazol-5-yl)-4-(trifluoromethyl)benzamide • V-13: 2-bromo-3-(ethylsulfonyl)-N-(1-methyl-1-1H-tetrazol-5-yl)-4-(trifluoromethyl)benzamide • V-14: 2-cyclopropyl-3-(ethylsulfanyl)-N-(1-methyl-1H-tetrazol-5-yl)-4-(trifluoromethyl)benzamide Herbicidal Pre-Emergence Action: […]

[7] = tested on: Echinochloa crus-galli; assay: Post-emergence herbicidal action, ECHCG; set-up: key: % herbicidal action vs untreated; 100 = plants died, 0 = like control; conditions: for herbicidal action ECHCG: Dosage 80 g/ha; for Herbicidal action against ECHCG: post-emergence, dosage 80 g/ha
Summary of the method: as §2

[8] = tested on: Matricaria inodora; assay: Post-emergence herbicidal action, MATIN; set-up: key: % herbicidal action vs untreated; 100 = plants died, 0 = like control; conditions: for herbicidal action MATIN: Dosage 80 g/ha
Summary of the method: as §2

[9] = tested on: Pharbitis purpurea; assay: Post-emergence herbicidal action, PHBPU; conditions: for herbicidal action PHBPU: Dosage 80 g/ha; for Herbicidal action against PHBPU: post-emergence, dosage 80 g/ha
Summary of the method: as §2

[10] = tested on: Setaria viridis; assay: Post-emergence herbicidal action, SETVI; set-up: key: % herbicidal action vs untreated; 100 = plants died, 0 = like control; conditions: Dosage 80 g/ha
Summary of the method: as §2

[11] = tested on: Stellaria media; assay: Post-emergence herbicidal action, STEME; set-up: key: % herbicidal action vs untreated; 100 = plants died, 0 = like control; conditions: for herbicidal action STEME: Dosage 80 g/ha; for Herbicidal action against STEME: post-emergence, dosage 80 g/ha
Summary of the method: as §2

[12] = tested on: Veronica persica; assay: Post-emergence herbicidal action, VERPE; set-up: key: % herbicidal action vs untreated; 100 = plants died, 0 = like control; conditions: for herbicidal action VERPE: Dosage 80 g/ha
Summary of the method: as §2

[13] = tested on: Viola tricolor; assay: Post-emergence herbicidal action, VIOTR; set-up: key: % herbicidal action vs untreated; 100 = plants died, 0 = like control; conditions: for herbicidal action VIOTR: Dosage 80 g/ha; for Herbicidal action against VIOTR: post-emergence, dosage 80 g/ha
Summary of the method: as §2

[14] = tested on: Abutilon theophrasti; assay: Pre-emergence herbicidal action, ABUTH; conditions: dosage 320 g/ha
Summary of the method: as §1

[15] = tested on: Echinochloa crus-galli; assay: Pre-emergence herbicidal action, ECHCG; conditions: dosage 320 g/ha
Summary of the method: as §1

[16] = tested on: Pharbitis purpurea; assay: Pre-emergence herbicidal action, PHBPU
From the text: (§4) 1. Pre-Emergence Herbicidal Action Against Harmful Plants Seeds of monocotyledonous and dicotyledonous weed plants and crop plants are laid out in sandy loam soil in wood-fiber pots and covered with soil. The compounds of the invention, formulated in the form of wettable powders (WP) or as emulsion concentrates (EC), are then applied to the surface of the covering soil in the form of an aqueous suspension or emulsion at a water application rate equating to 600 to 800 l/ha, with addition of 0.2% wetting agent. After the treatment, the pots are placed in a greenhouse and kept under good growth conditions for the trial plants. The damage to the test plants is scored visually after a test period of 3 weeks by comparison with untreated controls (herbicidal activity in percent (%): 100% activity=the plants have died, 0% activity=like control plants). […] The tables below illustrate, in an exemplary manner, the […] herbicidal action of the compounds according to the invention, the herbicidal activity being stated in percent. [table] In the experiments that follow, herbicidal action of numerous inventive compounds and the known compounds that are structurally closest from D1 (WO 2012/028579 A1) and D2 (WO 2018/202535 A1) were compared under the above-specified conditions by the pre-emergence and post-emergence method. The example numbers given in the tables relate to the compounds disclosed in the respective documents. In addition to the compounds disclosed in D1 and D2, the following compounds V-1 to V-14 that are encompassed by D1 or D2 but are not compounds specified therein were used in the comparative experiments: • V-1: 2-(methylsulfanyl)-3-(methylsulfinyl)-N-(1-methyl-1H-tetrazol-5-yl)-4-(trifluoromethyl)benzamide • V-2: 2-(methylsulfanyl)-3-(methylsulfonyl)-N-(1-methyl-1H-tetrazol-5-yl)-4-(trifluoromethyl)benzamide • V-3: 2,3-bis(ethylsulfanyl)-N-(1-methyl-1H-tetrazol-5-yl)-4-(trifluoromethyl)benzamide • V-4: 2-chloro-3-(ethylsulfanyl)-N-(1-methyl-1H-tetrazol-5-yl)-4-(trifluoromethyl)benzamide • V-5: 2-chloro-4-iodo-3-(methylsulfanyl)-N-(1-methyl-1H-tetrazol-5-yl)benzamide • V-6: 2-chloro-4-iodo-3-(methylsulfinyl)-N-(1-methyl-1H-tetrazol-5-yl)benzamide • V-7: 2-chloro-4-iodo-3-(methylsulfonyl)-N-(1-methyl-1H-tetrazol-5-yl)benzamide • V-8: 2-bromo-3-(methylsulfanyl)-N-(1-methyl-1H-tetrazol-5-yl)-4-(trifluoromethyl)benzamide • V-9: 2-bromo-3-(methylsulfinyl)-N-(1-methyl-1H-tetrazol-5-yl)-4-(trifluoromethyl)benzamide • V-10: 2-bromo-3-(methylsulfonyl)-N-(1-methyl-1H-tetrazol-5-yl)-4-(trifluoromethyl)benzamide • V-11: 2-bromo-3-(ethylsulfanyl)-N-(1-methyl-1H-tetrazol-5-yl)-4-(trifluoromethyl)benzamide • V-12: 2-bromo-3-(ethylsulfinyl)-N-(1-methyl-1H-tetrazol-5-yl)-4-(trifluoromethyl)benzamide • V-13: 2-bromo-3-(ethylsulfonyl)-N-(1-methyl-1-1H-tetrazol-5-yl)-4-(trifluoromethyl)benzamide • V-14: 2-cyclopropyl-3-(ethylsulfanyl)-N-(1-methyl-1H-tetrazol-5-yl)-4-(trifluoromethyl)benzamide Herbicidal Pre-Emergence Action: […]

[17] = tested on: Polygonum convolvulus; assay: Pre-emergence herbicidal action, POLCO; conditions: dosage 320 g/ha, scored visually after 3 weeks vs untreated controls (100% = plants have died)
From the text: as §4

[18] = tested on: Setaria viridis; assay: Pre-emergence herbicidal action, SETVI; conditions: dosage 320 g/ha, scored visually after 3 weeks vs untreated controls (100% = plants have died)
From the text: as §4

[19] = tested on: Stellaria media; assay: Pre-emergence herbicidal action, STEME; conditions: dosage 320 g/ha
Summary of the method: as §1

[20] = tested on: Viola tricolor; assay: Pre-emergence herbicidal action, VIOTR; conditions: dosage 320 g/ha
Summary of the method: as §1

[21] = tested on: Alopecurus myosuroides; assay: Post-emergence herbicidal action, ALOMY; set-up: key: % herbicidal action vs untreated; 100 = plants died, 0 = like control; conditions: Dosage 80 g/ha
Procedure: as §3

[22] = tested on: Polygonum convolvulus; assay: Post-emergence herbicidal action, POLCO; conditions: Dosage 80 g/ha
Procedure: as §3

[23] = scored visually after 3 weeks vs untreated controls (100% = plants have died)

| SMILES | herbicidal action AMARE [1] [%] | herbicidal action MATIN [2] [%] | herbicidal action VERPE [3] [%] | herbicidal action ABUTH [4] | herbicidal action AMARE [5] | herbicidal action CYPES [6] | herbicidal action ECHCG [7] | herbicidal action MATIN [8] | herbicidal action PHBPU [9] | herbicidal action SETVI [10] | herbicidal action STEME [11] | herbicidal action VERPE [12] | herbicidal action VIOTR [13] | Herbicidal action against AMARE [5] | Herbicidal action against ECHCG [7] | Herbicidal action against PHBPU [9] | Herbicidal action against STEME [11] | Herbicidal action against VIOTR [13] | herbicidal action ECHCG [15] [%] | herbicidal action STEME [19] [%] | also measured |
| --- | --- | --- | --- | --- | --- | --- | --- | --- | --- | --- | --- | --- | --- | --- | --- | --- | --- | --- | --- | --- | --- |
| Cc1c(C(=O)Nc2nnnn2C)ccc(S(C)(=O)=O)c1CS(C)(=O)=O [Example 1-39] | 100 | 100 | 90 | 90 | 90 | 80 | 80 | 90 | 80 | 90 | 80 | 90 | 90 |  |  |  |  |  |  |  |  |
| Cn1nnnc1NC(=O)c1ccc(S(C)(=O)=O)c(CS(C)(=O)=O)c1Cl [Example 1-280] |  |  |  |  |  |  |  |  |  |  |  |  |  | 90 | 90 | 90 | 100 | 90 |  |  | herbicidal activity ABUTH [14, 23]: 90%; herbicidal activity AMARE [1, 23]: 100%; herbicidal activity ECHCG [15, 23]: 100%; herbicidal activity MATIN [2, 23]: 90%; herbicidal activity PHBPU ([16]; dosage 320 g/ha, scored visually after 3 weeks vs untreated controls (100% = plants have died)): 80%; herbicidal activity POLCO [17]: 80%; herbicidal activity SETVI [18]: 80%; herbicidal activity STEME [19, 23]: 90%; herbicidal activity VERPE [3, 23]: 100%; herbicidal activity VIOTR [20, 23]: 90% |
| CCSCc1c(C(F)(F)F)ccc(C(=O)Nc2nnnn2C)c1C1CC1 [Example 1-517] |  |  |  |  |  |  |  |  |  |  |  |  |  |  |  |  |  |  |  |  | Herbicidal action against PHBPU ([16]; comparative experiment, 20 g of a.i./ha): 60 |
| CCn1nnnc1NC(=O)c1ccc(S(C)(=O)=O)c(CSC)c1C [Example 2-37] | 100 |  | 100 | 80 | 90 | 80 | 100 | 80 | 80 | 100 | 100 | 100 | 100 |  |  |  |  |  | 90 | 90 | herbicidal action ALOMY [21]: 80 |
| CCn1nnnc1NC(=O)c1ccc(C)c(C[S+](C)[O-])c1Cl (stereo not drawn) [Example 2-288] | 100 | 90 | 100 | 90 | 100 |  | 90 | 90 | 90 | 90 | 100 | 100 | 80 |  |  |  |  |  | 100 | 90 | herbicidal action ALOMY [21]: 80; herbicidal action POLCO [22]: 90 |
| CCCn1nnnc1NC(=O)c1ccc(C(F)(F)F)c(CS(C)(=O)=O)c1S(C)(=O)=O [Example 3-199] | 90 | 100 | 100 |  |  |  |  |  |  |  |  |  |  | 80 | 80 | 90 | 80 | 90 |  | 80 | herbicidal action ABUTH [14]: 100%; herbicidal action PHBPU ([16]; dosage 320 g/ha): 80%; herbicidal action VIOTR [20]: 100%; Herbicidal action against ABUTH ([4]; post-emergence, dosage 80 g/ha): 90; Herbicidal action against MATIN ([8]; post-emergence, dosage 80 g/ha): 80; Herbicidal action against VERPE ([12]; post-emergence, dosage 80 g/ha): 100 |
